Results as given in US12661410B2, “Compounds for targeted degradation of RET” (C4 Therapeutics, Inc., priority 2020, dated 2026).
Where a chain is given by its changes, count along the chain named. Where two headings read alike, the source gives them in different places.

Columns and labels:
RET (658-1114) = biological target: T1, RET (658-1114) (Homo sapiens, UniProt P07949); assay: HiBiT-Degradation, RET wild-type degradation assay (Nano-Glo HiBiT Lytic), 293T.144 cells; format: cell-based; conditions: for DC50 / Emax: 6.0 hours
T1 construct: 658-1114; expressed in transfected cells; host or cells: 293T.144 (293T cells, generated in-house)
T1 sequence (P07949 658-1114): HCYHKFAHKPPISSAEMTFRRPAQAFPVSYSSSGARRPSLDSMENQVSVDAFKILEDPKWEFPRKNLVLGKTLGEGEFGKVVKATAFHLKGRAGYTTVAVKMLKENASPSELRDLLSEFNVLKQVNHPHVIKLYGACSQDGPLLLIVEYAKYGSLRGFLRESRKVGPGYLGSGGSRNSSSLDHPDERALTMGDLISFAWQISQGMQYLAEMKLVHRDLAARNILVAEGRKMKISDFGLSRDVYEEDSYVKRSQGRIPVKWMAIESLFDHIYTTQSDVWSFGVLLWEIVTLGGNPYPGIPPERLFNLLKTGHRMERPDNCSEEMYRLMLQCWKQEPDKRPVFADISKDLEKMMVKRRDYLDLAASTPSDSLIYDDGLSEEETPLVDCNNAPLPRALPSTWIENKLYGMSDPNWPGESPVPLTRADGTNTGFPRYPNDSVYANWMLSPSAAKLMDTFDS
How it was run: (§1)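 HEK293T lines expressing HiBiT-tagged RET kinase domain, wild-type (293T.144) or G810R (293T.165), treated 6 h in duplicate, 11-point half-log series from 10 μM top. Lytic HiBiT luminescence read; DC50 and Emax (% protein remaining) from dose-response curves.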

RET(KD: 658-1114 G810R) = biological target: T2, RET(KD: 658-1114 G810R) (Homo sapiens, UniProt P07949, G810R); assay: HiBiT-Degradation, RET G810R degradation assay (Nano-Glo HiBiT Lytic), 293T.165 cells; format: cell-based; conditions: for Emax / DC50: 6.0 hours
T2 construct: 658-1114; expressed in transfected cells; host or cells: 293T.165 (293T cells, generated in-house)
T2 sequence (P07949 658-1114 G810R): T1 sequence (P07949 658-1114) with G153R
How it was run: as §1

[1] = HiBiT-Degradation, read-out: 293T.144 RET (658-1114) 6.0 hours (DC50)
[2] = HiBiT-Degradation, read-out: 293T.144 RET (658-1114) 6.0 hours (Emax)
[3] = % remaining protein, read-out: 293T.165 RET(KD: 658-1114 G810R) 6.0 hours (Emax)
[4] = half-maximal degradation concentration, read-out: 293T.165 RET(KD: 658-1114 G810R) 6.0 hours (DC50)
[5] = HiBiT-Degradation, read-out: 293T.165 RET(KD: 658-1114 G810R) 6.0 hours (DC50)
[6] = RET wild-type, read-out: HiBiT-Degradation 293T.144 RET (658-1114) 6.0 hours (DC50)
[7] = RET wild-type, read-out: HiBiT-Degradation 293T.144 RET (658-1114) 6.0 hours (Emax)
[8] = RET G810R, read-out: HiBiT-Degradation 293T.165 RET(KD: 658-1114 G810R) 6.0 hours (DC50)
[9] = RET G810R, read-out: HiBiT-Degradation 293T.165 RET(KD: 658-1114 G810R) 6.0 hours (Emax)
[10] = % remaining protein, read-out: 293T.144 RET (658-1114) 6.0 hours (Emax)
[11] = half-maximal degradation concentration, read-out: 293T.144 RET (658-1114) 6.0 hours (DC50)

| SMILES | 293T.144 RET (658-1114) 6.0 hours (IP) [nM] (RET (658-1114); HiBiT-Degradation) | DC50 (RET (658-1114); [1]) [µM] | Emax (RET (658-1114); [2]) [%] | Emax (RET(KD: 658-1114 G810R); [3]) [%] | DC50 (RET(KD: 658-1114 G810R); [4]) [µM] | 293T.165 RET(KD: 658-1114 G810R) 6.0 hours (Emax) (RET(KD: 658-1114 G810R); HiBiT-Degradation) | 293T.165 RET(KD: 658-1114 G810R) 6.0 hours (IP) [nM] (RET(KD: 658-1114 G810R); HiBiT-Degradation) | DC50 (RET(KD: 658-1114 G810R); [5]) [µM] | HiBiT-Degradation 293T.144 RET (658-1114) 6.0 hours (IP) [nM] (RET (658-1114); RET wild-type) | DC50 (RET (658-1114); [6]) [µM] | Emax (RET (658-1114); [7]) [%] | HiBiT-Degradation 293T.165 RET(KD: 658-1114 G810R) 6.0 hours (IP) [nM] (RET(KD: 658-1114 G810R); RET G810R) | DC50 (RET(KD: 658-1114 G810R); [8]) [µM] | Emax (RET(KD: 658-1114 G810R); [9]) [%] | 293T.144 RET (658-1114) 6.0 hours (IP) [nM] (RET (658-1114)) | Emax (RET (658-1114); [10]) [%] | DC50 (RET (658-1114); [11]) [µM] | 293T.165 RET(KD: 658-1114 G810R) 6.0 hours (IP) [nM] (RET(KD: 658-1114 G810R)) |
| --- | --- | --- | --- | --- | --- | --- | --- | --- | --- | --- | --- | --- | --- | --- | --- | --- | --- | --- |
| N#Cc1cnn2cc(-c3ccc(N4CCN(C(=O)CN5CCC(c6ccc(NC7CCC(=O)NC7=O)cc6F)CC5)CC4)cc3)cc(-c3ccc(N4CCN(Cc5ccccn5)CC4)nc3)c12 (stereo not shown) [Compound 28, 6-(4-(4-(2-(4-(4-((2,6-Dioxopiperidin-3-yl)amino)-2-fluorophenyl)piperidin-1-yl)acetyl)piperazin-1-yl)phenyl)-4-(6-(4-(pyridin-2-ylmethyl)piperazin-1-yl)pyridin-3-yl)pyrazolo[1,5-a]pyridine-3-carbonitrile] | ++++ (< 50 nM = ++++) | < 0.05 | < 30 | < 30 | < 0.1 | ++++ (< 30% = ++++) | ++++ (< 50 nM = ++++) | < 0.1 |  |  |  |  |  |  |  |  |  |  |
| N#Cc1cnn2cc(-c3cnn(C4CCN(C(=O)CN5CCC(c6ccc(NC7CCC(=O)NC7=O)cc6F)CC5)CC4)c3)cc(-c3ccc(N4CC5CC(C4)N5Cc4cccnc4)nc3)c12 (stereo not shown) [Compound 68, 6-[1-[1-[2-[4-[4-[(2,6-dioxo-3-piperidyl)amino]-2-fluoro-phenyl]-1-piperidyl]acetyl]-4-piperidyl]pyrazol-4-yl]-4-[6-[6-(3-pyridylmethyl)-3,6-diazabicyclo[3.1.1]heptan-3-yl]-3-pyridyl]pyrazolo[1,5-a]pyridine-3-carbonitrile] |  |  |  | < 30 | < 0.05 |  |  |  | ++++ (< 50 nM = ++++) | < 0.05 | < 30 | ++++ (< 50 nM = ++++) | < 0.05 | < 30 |  |  |  |  |
| N#Cc1cnn2cc(-c3ccc(N4CCN(C(=O)CN5CCC(c6ccc(NC7CCC(=O)NC7=O)cc6F)CC5)CC4)nc3)cc(-c3ccc(N4CCN(Cc5ccccn5)CC4)nc3)c12 (stereo not shown) [Compound 67, 6-[6-[4-[2-[4-[4-[(2,6-dioxo-3-piperidyl)amino]-2-fluoro-phenyl]-1-piperidyl]acetyl]piperazin-1-yl]-3-pyridyl]-4-[6-[4-(2-pyridylmethyl)piperazin-1-yl]-3-pyridyl]pyrazolo[1,5-a]pyridine-3-carbonitrile] |  |  |  | < 50 | < 0.1 |  |  |  | ++++ (< 50 nM = ++++) | < 0.05 | < 30 | ++++ (< 50 nM = ++++) | < 0.1 | < 50 |  |  |  |  |
| N#Cc1cnn2cc(-c3cnn(C4CCN(C(=O)CN5CCC(c6ccc(NC7CCC(=O)NC7=O)cc6F)CC5)CC4)c3)cc(-c3ccc(N4CC5CC(C4)N5Cc4ccccn4)nc3)c12 (stereo not shown) [Compound 73, 6-[1-[1-[2-[4-[4-[(2,6-dioxo-3-piperidyl)amino]-2-fluoro-phenyl]-1-piperidyl]acetyl]-4-piperidyl]pyrazol-4-yl]-4-[6-[6-(2-pyridylmethyl)-3,6-diazabicyclo[3.1.1]heptan-3-yl]-3-pyridyl]pyrazolo[1,5-a]pyridine-3-carbonitrile] |  |  |  | < 30 | < 0.05 |  |  |  | ++++ (< 50 nM = ++++) | < 0.05 | < 30 | ++++ (< 50 nM = ++++) | < 0.05 | < 30 |  |  |  |  |
| CCC1(C(=O)NC2CCC2)CCN(c2ccc(-c3nc(-c4cnn([C@H]5CC[C@H](N6CCC(c7ccc(N[C@H]8CCC(=O)NC8=O)cc7)CC6)CC5)c4)cn4ncc(C#N)c34)cn2)CC1 (single isomer, unassigned) [Compound 127] |  |  |  | < 30 | < 0.05 |  |  |  |  |  |  |  |  |  | ++++ (<50 nM = ++++) | < 30 | < 0.05 | ++++ (<50 nM = ++++) |
| CC(C)NC(=O)C1(C)CCN(c2ccc(-c3cc(-c4cnn([C@H]5CC[C@H](CCN6CCC(c7ccc(NC8CCC(=O)NC8=O)cc7F)CC6)CC5)c4)cn4ncc(C#N)c34)cn2)CC1 (stereo partly shown) [Compound 34, 1-(5-(3-Cyano-6-(1-((1r,4r)-4-(2-(4-(4-((2,6-dioxopiperidin-3-yl)amino)-2-fluorophenyl)piperidin-1-yl)ethyl)cyclohexyl)-1H-pyrazol-4-yl)pyrazolo[1,5-a]pyridin-4-yl)pyridin-2-yl)-N-isopropyl-4-methylpiperidine-4-carboxamide] | ++++ (< 50 nM = ++++) | < 0.05 | < 30 | < 30 | < 0.05 | ++++ (< 30% = ++++) | ++++ (< 50 nM = ++++) | < 0.05 |  |  |  |  |  |  |  |  |  |  |
| CCC1(C(=O)NC(C)C)CCN(c2ccc(-c3nc(-c4cnn(C5CCN(C(=O)CC6(O)CCN(c7ccc(NC8CCC(=O)NC8=O)cc7Br)CC6)CC5)c4)cn4ncc(C#N)c34)cn2)CC1 (stereo not shown) [Compound 95, 1-[5-[6-[1-[1-[2-[1-[2-bromo-4-[(2,6-dioxo-3-piperidyl)amino]phenyl]-4-hydroxy-4-piperidyl]acetyl]-4-piperidyl]pyrazol-4-yl]-3-cyano-pyrazolo[1,5-a]pyrazin-4-yl]-2-pyridyl]-4-ethyl-N-isopropyl-piperidine-4-carboxamide] |  |  |  | < 30 | < 0.05 |  |  |  |  |  |  |  |  |  | ++++ (<50 nM = ++++) | < 30 | < 0.05 | ++++ (<50 nM = ++++) |
| CCC1(C(=O)NC2CCCC2)CCN(c2ccc(-c3nc(-c4cnn([C@H]5CC[C@H](N6CCC(c7ccc(N[C@@H]8CCC(=O)NC8=O)cc7F)CC6)CC5)c4)cn4ncc(C#N)c34)cn2)CC1 [Compound 142, 1-[5-[3-cyano-6-[1-[4-[4-[4-[[(3R)-2,6-dioxo-3-piperidyl]amino]-2-fluoro-phenyl]-1-piperidyl]cyclohexyl]pyrazol-4-yl]pyrazolo[1,5-a]pyrazin-4-yl]-2-pyridyl]-N-cyclopentyl-4-ethyl-piperidine-4-carboxamide] |  |  |  | < 30 | < 0.05 |  |  |  |  |  |  |  |  |  | ++++ (<50 nM = ++++) | < 30 | < 0.05 | ++++ (<50 nM = ++++) |
